Test results published in patent US9815802B2, “Herbicidally active N-(1-methyltetrazol-5-yl)benzoic acid amides” (BAYER CROPSCIENCE AKTIENGESELLSCHAFT, priority 2014, dated 2017).

Assays:
Assay type in all cases: in vivo
[1] = test system: Setaria viridis; assay: Pre-emergence herbicidal action against SETVI; settings: dosage 320 g/ha
Source text: (§1) Pre-Emergence Herbicidal Action Against Harmful Plants
(§2) Seeds of monocotyledonous and dicotyledonous weed plants and crop plants are laid out in wood-fiber pots in sandy loam and covered with soil. The compounds of the invention, formulated in the form of wettable powders (WP) or as emulsion concentrates (EC), are then applied to the surface of the covering soil in the form of an aqueous suspension or emulsion at a water application rate equating to 600 to 800 I/ha, with addition of 0.2% wetting agent. After the treatment, the pots are placed in a greenhouse and kept under good growth conditions for the trial plants. The damage to the test plants is scored visually after a test period of 3 weeks by comparison with untreated controls (herbicidal activity in percent (%): 100% activity=the plants have died, 0% activity=like control plants). For example, compounds no. 1-001, 1-002, 1-003, 1-004, 1-011, 1-012, 1-021, 1-022, 1-031, 1-032, 1-041, 1-042 and 1-044 at an application rate of 320 g/ha each have at least 80% efficacy against Echinocloa crusgalli, Abutilon theophrasti, Amaranthus retroflexus and Matricaria inodora.

[2] = test system: Stellaria media; assay: Pre-emergence herbicidal action against STEME; settings: dosage 320 g/ha
Source text: as §1, §2

[3] = test system: Avena fatua; assay: Pre-emergence herbicidal action against AVEFA; settings: dosage 320 g/ha
Source text: as §1, §2

[4] = test system: Pharbitis purpureum; assay: Pre-emergence herbicidal action against PHBPU; settings: dosage 320 g/ha
Source text: as §1, §2

[5] = test system: Polygonum convolvulus; assay: Pre-emergence herbicidal action against POLCO; settings: dosage 320 g/ha
Source text: as §1, §2

[6] = test system: Echinochloa crus galli; assay: Post-emergence herbicidal action against ECHCG; settings: dosage 80 g/ha
Protocol: (§3) Post-Emergence Herbicidal Action Against Harmful Plants Seeds of monocotyledonous and dicotyledonous weed and crop plants are laid out in sandy loam in wood-fiber pots, covered with soil and cultivated in a greenhouse under good growth conditions. 2 to 3 weeks after sowing, the test plants are treated at the one-leaf stage. The compounds of the invention, formulated in the form of wettable powders (WP) or as emulsion concentrates (EC), are then sprayed onto the green parts of the plants in the form of an aqueous suspension or emulsion at a water application rate equating to 600 to 800 I/ha, with addition of 0.2% wetting agent. After the test plants have been left to stand in the greenhouse under optimal growth conditions for about 3 weeks, the action of the preparations is assessed visually in comparison to untreated controls (herbicidal action in percent (%): 100% activity=the plants have died, 0% activity=like control plants).

[7] = test system: Setaria viridis; assay: Post-emergence herbicidal action against SETVI
Protocol: as §3

[8] = test system: Abutilon theophrasti; assay: Post-emergence herbicidal action against ABUTH; settings: dosage 80 g/ha
Protocol: as §3

[9] = test system: Avena fatua; assay: Post-emergence herbicidal action against AVEFA
Protocol: as §3

[10] = test system: Alopecurus myosuroides; assay: Post-emergence herbicidal action against ALOMY
Protocol: as §3

[11] = test system: Stellaria media; assay: Post-emergence herbicidal action against STEME; settings: dosage 5 g/ha
Protocol: as §3

[12] = test system: Polygonum convolvulus; assay: Post-emergence herbicidal action against POLCO
Protocol: as §3

## CCOSc1c(C)ccc(C(=O)Nc2nnnn2C)c1[N+](=O)[O-] [4-799]
[1]
  Activity against SETVI: 0%
[2]
  Activity against STEME: 70%

## COc1c(C(=O)Nc2nnnn2C)ccc(C)c1S(C)(=O)=O [4-811]
[3]
  Activity against AVEFA: 60%
[4]
  Activity against PHBPU: 70%

## CCOSc1c(CC)ccc(C(=O)Nc2nnnn2C)c1CC [drawing 36]
[4]
  Activity against PHBPU: 100%
[5]
  Activity against POLCO: 100%

## CCc1c(C(=O)Nc2nnnn2C)ccc(Cl)c1S(=O)(=O)CC [drawing 37, reference compound]
[4]
  Activity against PHBPU: 80%
[5]
  Activity against POLCO: 60%

## COSc1c(C)ccc(C(=O)Nc2nnnn2C)c1C [drawing 38]
[6]
  Activity against ECHCG: 100%
[7]; dosage 80 g/ha
  Activity against SETVI: 100%
[8]
  Activity against ABUTH: 100%

## COSc1c(C)ccc(C(=O)Nc2nnnn2C)c1C [drawing 39, reference compound]
[6]
  Activity against ECHCG: 40%
[7]; dosage 80 g/ha
  Activity against SETVI: 20%
[8]
  Activity against ABUTH: 80%

## CCOSc1c(C)ccc(C(=O)Nc2nnnn2C)c1[N+](=O)[O-] [drawing 43, reference compound]
[9]; dosage 80 g/ha
  Activity against AVEFA: 0%
[10]; dosage 80 g/ha
  Activity against ALOMY: 10%

## CCS(=O)(=O)c1c(C)ccc(C(=O)Nc2nnnn2C)c1C [drawing 45]
[9]; dosage 80 g/ha
  Activity against AVEFA: 80%
[10]; dosage 80 g/ha
  Activity against ALOMY: 90%

## CCS(=O)(=O)c1c(C)ccc(C(=O)Nc2nnnn2C)c1C [drawing 46, reference compound]
[9]; dosage 80 g/ha
  Activity against AVEFA: 20%
[10]; dosage 80 g/ha
  Activity against ALOMY: 40%

## COSc1c(S(C)(=O)=O)ccc(C(=O)Nc2nnnn2C)c1C [drawing 50, reference compound]
[11]
  Activity against STEME: 80%
[7]; dosage 5 g/ha
  Activity against SETVI: 40%

## CCc1ccc(C(=O)Nc2nnnn2C)c(C)c1S(C)(=O)=O [drawing 51]
[9]; dosage 5 g/ha
  Activity against AVEFA: 80%
[10]; dosage 5 g/ha
  Activity against ALOMY: 60%

## Cc1c(C(=O)Nc2nnnn2C)ccc(S(C)(=O)=O)c1S(C)(=O)=O [drawing 52, reference compound]
[9]; dosage 5 g/ha
  Activity against AVEFA: 10%
[10]; dosage 5 g/ha
  Activity against ALOMY: 30%

## COSc1c(S(C)(=O)=O)ccc(C(=O)Nc2nnnn2C)c1C [drawing 55, reference compound]
[9]; dosage 5 g/ha
  Activity against AVEFA: 0%
[10]; dosage 5 g/ha
  Activity against ALOMY: 0%

## Cc1c(C(=O)Nc2nnnn2C)ccc(S(C)(=O)=O)c1S(C)(=O)=O [drawing 60]
[9]; Table S, dosage 5 g/ha
  Activity against AVEFA: 10%
[10]; Table S, dosage 5 g/ha
  Activity against ALOMY: 30%

## CCc1c(C(=O)Nc2nnnn2C)ccc(C)c1SOC [drawing 61]
[6]; Table T
  Activity against ECHCG: 90%
[7]; Table T, dosage 80 g/ha
  Activity against SETVI: 80%

## COSc1c(C)ccc(C(=O)Nc2nnnn2C)c1C [drawing 62]
[6]; Table T
  Activity against ECHCG: 40%
[7]; Table T, dosage 80 g/ha
  Activity against SETVI: 20%

## COSc1c(C)ccc(C(=O)Nc2nnnn2C)c1[N+](=O)[O-] [drawing 63]
[6]; Table T
  Activity against ECHCG: 20%
[7]; Table T, dosage 80 g/ha
  Activity against SETVI: 0%

## Cc1ccc(C(=O)Nc2nnnn2C)c([N+](=O)[O-])c1S(C)(=O)=O [drawing 66]
[6]; Table U
  Activity against ECHCG: 0%
[7]; Table U, dosage 80 g/ha
  Activity against SETVI: 0%

## CCc1c(C(=O)Nc2nnnn2C)ccc(C)c1SOC [drawing 67]
[12]; Table V, dosage 5 g/ha
  Activity against POLCO: 60%

## CCc1c(C(=O)Nc2nnnn2C)ccc(Br)c1SOC [drawing 69]
[12]; Table V, dosage 5 g/ha
  Activity against POLCO: 20%

## CCc1c(C(=O)Nc2nnnn2C)ccc(C)c1S(C)(=O)=O [drawing 70]
[12]; Table W, dosage 20 g/ha
  Activity against POLCO: 70%

## CCc1c(C(=O)Nc2nnnn2C)ccc(Cl)c1S(C)(=O)=O [drawing 71]
[12]; Table W, dosage 20 g/ha
  Activity against POLCO: 50%

## CCOSc1c(CC)ccc(C(=O)Nc2nnnn2C)c1CC [drawing 73]
[12]; Table X, dosage 20 g/ha
  Activity against POLCO: 60%

## CCc1c(C(=O)Nc2nnnn2C)ccc(Cl)c1S(=O)(=O)CC [drawing 76]
[12]; Table Y, dosage 20 g/ha
  Activity against POLCO: 70%

## CCOSc1c(OC)ccc(C(=O)Nc2nnnn2C)c1C [reference compound]
[9]; dosage 80 g/ha
  Activity against AVEFA: 20%
[10]; dosage 80 g/ha
  Activity against ALOMY: 40%

## CCS(=O)(=O)c1c(C)ccc(C(=O)Nc2nnnn2C)c1[N+](=O)[O-] [reference compound]
[9]; dosage 80 g/ha
  Activity against AVEFA: 0%
[10]; dosage 80 g/ha
  Activity against ALOMY: 10%

## COSc1c(C(F)(F)F)ccc(C(=O)Nc2nnnn2C)c1C [reference compound]
[11]
  Activity against STEME: 80%
[7]; dosage 5 g/ha
  Activity against SETVI: 80%

## Cc1c(C(=O)Nc2nnnn2C)ccc(Cl)c1S(C)(=O)=O [reference compound]
[9]; dosage 5 g/ha
  Activity against AVEFA: 20%
[10]; dosage 5 g/ha
  Activity against ALOMY: 20%

## COSc1cccc(C(=O)Nc2nnnn2C)c1C [reference compound]
[9]; dosage 5 g/ha
  Activity against AVEFA: 20%
[10]; dosage 5 g/ha
  Activity against ALOMY: 10%
